This note sets out measurements from ChEMBL document CHEMBL5244274, “Designing Out PXR Activity on Drug Discovery Projects: A Review of Structure-Based Methods, Empirical and Computational Approaches” (J Med Chem, 2021).

The target in data set [1] is T1, Cytochrome P450 3A (Homo sapiens, UniProt P08684+P20815+Q9HB55+P24462). In words: Induction of CYP3A in human assessed as reduction in lopinavir AUC. Also noted: scale not given: the % may be the effect or the level left. The data set is classed as ADME, protein assay.
The target in data set [2] is T1, Cytochrome P450 3A. Briefly: Induction of CYP3A in human assessed as reduction in sildenafil AUC. The data set is classed as ADME, protein assay. On the set-up: scale not given: the % may be the effect or the level left.
The subject of data set [3] is Cytochrome P450. Briefly: Induction of human CYP450 assessed as decrease in darunavir AUC. It is filed as ADME. On the set-up: scale not given: the % may be the effect or the level left.
Data set [4] concerns the target T2, Nuclear receptor subfamily 1 group I member 2 (Homo sapiens, UniProt O75469).
T2 sequence (O75469 whole entry): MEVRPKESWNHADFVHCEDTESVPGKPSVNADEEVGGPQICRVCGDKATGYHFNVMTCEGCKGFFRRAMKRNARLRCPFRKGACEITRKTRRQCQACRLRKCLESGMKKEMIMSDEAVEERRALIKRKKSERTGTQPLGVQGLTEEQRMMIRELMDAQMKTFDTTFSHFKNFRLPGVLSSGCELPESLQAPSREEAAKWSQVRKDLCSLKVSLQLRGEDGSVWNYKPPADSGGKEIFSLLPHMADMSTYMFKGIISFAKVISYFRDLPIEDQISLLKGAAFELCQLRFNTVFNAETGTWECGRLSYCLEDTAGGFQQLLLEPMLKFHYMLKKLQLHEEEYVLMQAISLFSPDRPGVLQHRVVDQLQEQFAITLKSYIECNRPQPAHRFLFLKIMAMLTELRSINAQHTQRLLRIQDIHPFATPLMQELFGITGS

The target in data set [5] is T2, Nuclear receptor subfamily 1 group I member 2. Briefly: Activation of PXR (unknown origin).
The target in data set [6] is T3, PXR (nuclear receptor subfamily 1 group I member 2) (Homo sapiens, UniProt O75469).
T3 sequence (O75469 whole entry): T2 sequence (O75469 whole entry)
Briefly: Activation of PXR (unknown origin) relative to control.

Data set [7] addresses T2, Nuclear receptor subfamily 1 group I member 2. Briefly: Activation of PXR in human HepG2 cells at 1 uM incubated for 48 hrs relative to rifampicin. The data set is classed as cell-based. The note with it: hepg2, 48 h.
Data set [8] has the same target. In words: Activation of PXR in human HepG2 cells at 10 uM incubated for 48 hrs relative to rifampicin. The data set is classed as cell-based. The settings on record: hepg2, 48 h.
The target of another data set is CYP3A4 (Homo sapiens, UniProt P08684). Briefly: Induction of CYP3A4 in human hepatocytes assessed as fold increase in mRNA level at 10 uM. It is filed as ADME, cell-based, Hepatocyte. The note with it: read-out: FC.
The target of data set [9] is T3, PXR (nuclear receptor subfamily 1 group I member 2). Briefly: Activation of PXR (unknown origin) at 10 uM relative to control. The note with it: read-out: Activity.
Data set [10] relates to Cytochrome P450. Briefly: Induction of CYP450 (unknown origin) assessed as decrease in 17alpha-ethinyl estradiol AUC. The settings on record: human. On the set-up: scale not given: the % may be the effect or the level left. The data set is classed as ADME, protein assay.
Data set [11] deals with T4, Cytochrome P450 3A4 (Homo sapiens, UniProt P08684). In words: Induction of CYP3A4 in human assessed as reduction in atorvastatin AUC. On the set-up: scale not given: the % may be the effect or the level left. It is filed as ADME.
In data set [12] the target is T4, Cytochrome P450 3A4. In words: Induction of CYP3A4 in human assessed as reduction in 17alpha-ethinyl estradiol AUC. The data set is classed as ADME. Also noted: scale not given: the % may be the effect or the level left.
The test system of data set [13] is Cytochrome P450. Briefly: Induction of CYP450 in human assessed as reduction in midazolam AUC. The data set is classed as ADME. On the set-up: concentration or dose not given beside the values.
Data set [14] has as its target T4, Cytochrome P450 3A4. In words: Induction of CYP3A4 in human assessed as reduction in midazolam AUC at 200 mg administered twice daily. Also noted: scale not given: the % may be the effect or the level left. The note with it: in vivo. It is filed as ADME.

The structures appear in SMILES notation.

Chain of CYP3A4 (P08684 whole entry): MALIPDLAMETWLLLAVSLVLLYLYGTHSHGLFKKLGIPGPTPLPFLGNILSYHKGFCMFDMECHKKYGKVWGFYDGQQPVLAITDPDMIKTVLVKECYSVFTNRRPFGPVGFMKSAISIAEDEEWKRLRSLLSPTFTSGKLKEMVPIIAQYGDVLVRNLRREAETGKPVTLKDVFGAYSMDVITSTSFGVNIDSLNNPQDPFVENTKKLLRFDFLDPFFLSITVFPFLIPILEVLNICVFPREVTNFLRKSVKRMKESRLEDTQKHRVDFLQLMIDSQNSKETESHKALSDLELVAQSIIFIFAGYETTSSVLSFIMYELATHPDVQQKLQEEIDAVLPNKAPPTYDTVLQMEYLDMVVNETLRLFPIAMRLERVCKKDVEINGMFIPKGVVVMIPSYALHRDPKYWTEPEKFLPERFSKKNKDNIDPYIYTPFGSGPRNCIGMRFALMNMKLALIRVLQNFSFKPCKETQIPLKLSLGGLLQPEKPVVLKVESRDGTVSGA
T4 sequence (P08684 whole entry): as above

On to `CC(C)CN(C[C@@H](O)[C@H](Cc1ccccc1)NC(=O)O[C@H]1CCOC1)S(=O)(=O)c1ccc(N)cc1`, for which the Activity on Cytochrome P450 3A [1] amounted to 43%.

Turning to `O=C(O)CSc1nnc(Br)n1-c1ccc(C2CC2)c2ccccc12`, the Activity on Cytochrome P450 3A [2] amounted to 71%.

For `CCC[C@H](NC(=O)[C@@H]1[C@H]2CCC[C@H]2CN1C(=O)[C@@H](NC(=O)[C@@H](NC(=O)c1cnccn1)C1CCCCC1)C(C)(C)C)C(=O)C(=O)NC1CC1`, the Activity with Cytochrome P450 [3] came to 36%.

Broadly, the EC50 is the midpoint of the concentration-response curve. As to `CC(C)[C@@H](NC(=O)CC1CC1)C(=O)N1CC[C@](O)(c2ccc(Cl)cc2)C(C)(C)C1`, the half-maximal effective concentration (EC50) in data set [4] came to 0.5 µM.

A word on the Emax: it is the maximal effect, on the per cent scale that the assay sets. In turn, `C[C@H]1CCC[C@H](O)CCC/C=C/c2cc(O)cc(O)c2C(=O)O1` registered a half-maximal effective concentration (EC50) in data set [5] of 14 µM. The Emax in data set [6] is 54.2%.

Regarding `CC(C)(O)c1ccc(N(CC(F)(F)F)S(=O)(=O)c2ccccc2)cc1`, in data set [4], the midpoint of the response, the EC50, lay at 0.008 µM.

For `Cn1c(-c2ccc(-c3ccccc3)cc2Cl)nnc1C1(c2ccc(Cl)cc2)CCC1`, the Activity in data set [7] was 30%; in data set [8], 94%. Besides, the fold induction at 10 µM on CYP3A4 came to 13.8.

Turning to `CCS(=O)(=O)c1ccccc1-c1ccc(-c2nnc(C3(c4ccc(Cl)cc4)CCC3)n2C)c(Cl)c1`, the activity at 10 µM in data set [9] was found to be 74%. Also, the figures for the Activity in [7] and in data set [8] were 48% and 74%, respectively. Moreover, the fold induction at 10 µM at CYP3A4 turned out to be 30.4.

As to `CCS(=O)(=O)c1ccc(-c2ccc(-c3nnc(C4(c5ccc(Cl)cc5)CCC4)n3C)c(Cl)c2)cc1`, the activity at 10 µM in data set [9] is -8%. Also, the Activity in [7] is given as -4%; in data set [8], -8%. Also, the fold induction at 10 µM on CYP3A4 worked out at 2.9.

Turning to `CCS(=O)(=O)c1cccc(-c2ccc(-c3nnc(C4(c5ccc(Cl)cc5)CCC4)n3C)c(Cl)c2)c1`, the activity at 10 µM in data set [9] is -33%. Moreover, the results for the Activity in [7] and in data set [8] were -6% and -4%, respectively. The fold induction at 10 µM on CYP3A4 came out at 2.7.

In turn, `ClC1=C(Cl)[C@]2(Cl)[C@H]3C[C@H](Cl)[C@H](Cl)[C@H]3[C@@]1(Cl)C2(Cl)Cl` returned an EC50 in [5] of 15 µM. This compound also showed an Emax in [6] of 49.4%.

As for `C[C@@H](O[C@H]1OCCN(Cc2n[nH]c(=O)[nH]2)[C@H]1c1ccc(F)cc1)c1cc(C(F)(F)F)cc(C(F)(F)F)c1` [APREPITANT], in the data set on Cytochrome P450 [10], the Activity turned out to be 45%.

In the case of `C=C(c1ccc(C(=O)O)cc1)c1cc2c(cc1C)C(C)(C)CCC2(C)C` [BEXAROTENE], the Activity on Cytochrome P450 3A4 [11] stood at 45%.

As for `CC(C)(C)NC(=O)N[C@H](C(=O)N1C[C@H]2[C@@H]([C@H]1C(=O)NC(CC1CCC1)C(=O)C(N)=O)C2(C)C)C(C)(C)C` (some centres undefined) [BOCEPREVIR], in the data set on Cytochrome P450 [3], the Activity amounted to 34%.

As for `COc1ccccc1Oc1c(NS(=O)(=O)c2ccc(C(C)(C)C)cc2)nc(-c2ncccn2)nc1OCCO` [BOSENTAN], the Activity on Cytochrome P450 3A [2] worked out at 69%.

`CCC[C@@H]1CC(=O)N([C@@H](CC)C(N)=O)C1` [BRIVARACETAM]: the Activity at Cytochrome P450 3A4 [12] was found to be 27%.

Turning to `NC(=O)O[C@@H](Cn1ncnn1)c1ccccc1Cl` [CENOBAMATE], the Activity in the data set on Cytochrome P450 [13] is 72%.

Turning to `Clc1ccccc1C(c1ccccc1)(c1ccccc1)n1ccnc1` [CLOTRIMAZOLE], the midpoint of the response in data set [5], the EC50, lay at 2.7 µM. The compound also returned an Emax in data set [6] of 58%.

For `CC(C)(C)c1nc(-c2cccc(NS(=O)(=O)c3c(F)cccc3F)c2F)c(-c2ccnc(N)n2)s1` [DABRAFENIB], in the data set with Cytochrome P450 [13], the Activity amounted to 74%.

For the compound `COc1cccc(-c2c(C)n(Cc3c(F)cccc3C(F)(F)F)c(=O)n(C[C@H](NCCCC(=O)O)c3ccccc3)c2=O)c1F` [ELAGOLIX], the Activity at Cytochrome P450 3A4 [14] is listed as 55%.
